Measured values as given in PubChem BioAssay AID330 (DTP/NCI, 2004).
“And” between values parts separate entries of the source, which are not always exact repeats. Equal values may be shown once. Toxic doses and inconclusive results are not listed. How the source made its calls: active means survival T/C of 150% or more; inactive means T/C below 125% in these data.

Tested on: P388 leukemia ip, CD2F1 mice, survival T/C
Test: NCI In Vivo Anticancer Drug Screen. Data for tumor model P388 Leukemia (intraperitoneal) in CD2F1 (CDF1) mice
Settings: endpoint: median survival time, higher = longer survival
Method in brief: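 Mice carrying the transplanted tumor received test compound or vehicle. Survival was recorded in each group, and the value is the treated-group measurement divided by that of the vehicle-treated control group.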

[1] = dose: 50.0 mg/kg/injection, schedule: Q01DX005 (ip), vehicle: saline with Tween-80
[2] = dose: 100.0 mg/kg/injection, schedule: Q01DX005 (ip), vehicle: saline with Tween-80
[3] = dose: 200.0 mg/kg/injection, schedule: Q01DX005 (ip), vehicle: saline with Tween-80
[4] = dose: 50.0 mg/kg/injection, schedule: Q01DX009 (ip), vehicle: Klucel (hydroxypropylcellulose) (HPC)
[5] = dose: 100.0 mg/kg/injection, schedule: Q01DX009 (ip), vehicle: Klucel (hydroxypropylcellulose) (HPC)
[6] = dose: 200.0 mg/kg/injection, schedule: Q01DX009 (ip), vehicle: Klucel (hydroxypropylcellulose) (HPC)
[7] = dose: 25.0 mg/kg/injection, schedule: Q01DX005 (ip), vehicle: saline with Tween-80
[8] = dose: 12.5 mg/kg/injection, schedule: Q01DX005 (ip), vehicle: saline with Tween-80

Measured: T/C

CC1=CC[C@@H]2[C@@H](CC[C@@]2(C)O)C(C)(C)[C@H]1CC[C@@H]1[C@@]2(C)CCC(=O)C(C)(C)O[C@@H]2CC[C@]1(C)O
inactive: dose: 7.5 mg/kg/injection, schedule: Q01DX005 (ip), vehicle: saline + Tween-80 + alcohol 92 % of control | dose: 15.0 mg/kg/injection, schedule: Q01DX005 (ip), vehicle: saline + Tween-80 + alcohol 98 % of control | dose: 30.0 mg/kg/injection, schedule: Q01DX005 (ip), vehicle: saline + Tween-80 + alcohol 97 % of control | dose: 60.0 mg/kg/injection, schedule: Q01DX005 (ip), vehicle: saline + Tween-80 + alcohol 103 % of control

CCOC(=O)CCC(CNC(=O)c1ccccc1)NC(=O)c1ccccc1 (configuration not stated)
inactive: dose: 60.0 mg/kg/injection, schedule: Q01DX005 (ip), vehicle: saline with Tween-80 98 % of control | dose: 120.0 mg/kg/injection, schedule: Q01DX005 (ip), vehicle: saline with Tween-80 90 % of control | dose: 240.0 mg/kg/injection, schedule: Q01DX005 (ip), vehicle: saline with Tween-80 88 % of control

O=C1OC2C(I)C3CC2C1C3c1ccccc1 (configuration not stated)
inactive: [1] 105 % of control | [2] 103 % of control | [3] 105 % of control

CNC(=O)Oc1cccc2c1C(=O)OC2=O
inactive: dose: 100.0 mg/kg/injection, schedule: Q01DX001 (ip), vehicle: saline with Tween-80 100 % of control | dose: 200.0 mg/kg/injection, schedule: Q01DX001 (ip), vehicle: saline with Tween-80 92 % of control | dose: 400.0 mg/kg/injection, schedule: Q01DX001 (ip), vehicle: saline with Tween-80 102 % of control

CC12CC3(C)CC(C)(C1)CC(C(Cl)C(=O)NC1CCCCC1)(C2)C3 (configuration not stated)
inactive: [4] 110 % of control | [5] 107 % of control | [6] 97 % of control

c1cnc2c(OCCOCCOCCOCCOc3cccc4cccnc34)cccc2c1
inactive: [1] 90 % of control | [2] 90 % of control | [3] 98 % of control

C/C=C1\C[C@H]2C(=O)Nc3cc(O)c(OC)cc3C(=O)N2C1
inactive: [7] 96 % of control | [1] 105 % of control | [2] 106 % of control

N=C(N)c1ccc(N=NNc2ccc(C(=N)N)cc2)cc1
inactive: dose: 12.5 mg/kg/injection, schedule: Q01DX005 (ip), vehicle: Klucel + Tween-80 94 % of control | [8] 96 % of control | dose: 25.0 mg/kg/injection, schedule: Q01DX005 (ip), vehicle: Klucel + Tween-80 98 % of control | dose: 50.0 mg/kg/injection, schedule: Q01DX005 (ip), vehicle: Klucel + Tween-80 100 % of control

Cc1ccc(S(=O)(=O)N/N=C/c2ccc(Cl)cc2O)cc1
inactive: dose: 12.5 mg/kg/injection, schedule: Q01DX005 (ip), vehicle: distilled water + Tween-80 102 % of control | dose: 25.0 mg/kg/injection, schedule: Q01DX005 (ip), vehicle: distilled water + Tween-80 99 % of control | dose: 50.0 mg/kg/injection, schedule: Q01DX005 (ip), vehicle: distilled water + Tween-80 100 % of control | dose: 100.0 mg/kg/injection, schedule: Q01DX005 (ip), vehicle: distilled water + Tween-80 100 % of control | dose: 200.0 mg/kg/injection, schedule: Q01DX005 (ip), vehicle: distilled water + Tween-80 100 % of control

[CH3][Sn]1([CH3])[O]C(=O)CC(CC(=O)O)C(=O)[O]1 (configuration not stated)
inactive: dose: 12.5 mg/kg/injection, schedule: Q01DX005 (ip), vehicle: Klucel (hydroxypropylcellulose) (HPC) 119 % of control | dose: 25.0 mg/kg/injection, schedule: Q01DX005 (ip), vehicle: Klucel (hydroxypropylcellulose) (HPC) 117 % of control | dose: 50.0 mg/kg/injection, schedule: Q01DX005 (ip), vehicle: Klucel (hydroxypropylcellulose) (HPC) 113 % of control and 117 % of control

C(=N/Nc1ccccc1)/C(=N\Nc1ccccc1)C1CCN(Cc2ccccc2)CC1
inactive: dose: 25.0 mg/kg/injection, schedule: Q01DX001 (ip), vehicle: Klucel (hydroxypropylcellulose) (HPC) 103 % of control | dose: 50.0 mg/kg/injection, schedule: Q01DX001 (ip), vehicle: Klucel (hydroxypropylcellulose) (HPC) 107 % of control | dose: 100.0 mg/kg/injection, schedule: Q01DX001 (ip), vehicle: Klucel (hydroxypropylcellulose) (HPC) 100 % of control

COc1ccc2nc(N)sc2c1
inactive: dose: 12.5 mg/kg/injection, schedule: Q01DX009 (ip), vehicle: Klucel (hydroxypropylcellulose) (HPC) 97 % of control | dose: 12.5 mg/kg/injection, schedule: Q01DX009 (ip), vehicle: saline with Tween-80 111 % of control | dose: 25.0 mg/kg/injection, schedule: Q01DX009 (ip), vehicle: Klucel (hydroxypropylcellulose) (HPC) 99 % of control | dose: 25.0 mg/kg/injection, schedule: Q01DX009 (ip), vehicle: saline with Tween-80 111 % of control | [4] 107 % of control | dose: 50.0 mg/kg/injection, schedule: Q01DX009 (ip), vehicle: saline with Tween-80 120 % of control | [5] 107 % of control

COC(=O)C1=CC(=O)N2C(=Nc3cccc4cccc2c34)S1
inactive: dose: 6.25 mg/kg/injection, schedule: Q01DX005 (ip), vehicle: saline with Tween-80 91 % of control | [8] 94 % of control | [7] 103 % of control | [2] 99 % of control | [3] 103 % of control

O=C1C2C3C=CC(C3)C2C(=O)N1O (configuration not stated)
inactive: [1] 101 % of control | [2] 100 % of control | [3] 100 % of control

NC(N)=NC(N)=Nc1ccc(-c2ccc(N=C(N)N=C(N)N)cc2)cc1
inactive: dose: 3.13 mg/kg/injection, schedule: Q01DX009 (ip), vehicle: saline with Tween-80 108 % of control | dose: 6.25 mg/kg/injection, schedule: Q01DX009 (ip), vehicle: saline with Tween-80 106 % of control

NC(Cc1c[nH]c2ccccc12)C(=O)O (configuration not stated)
inactive: [4] 99 % of control | [5] 107 % of control | [6] 104 % of control
